Test results as given in US12144864B2, “Tubulysins and protein-tubulysin conjugates” (Regeneron Pharmaceuticals, Inc., priority 2018, dated 2024).
Like-named read-outs stand apart in the source and are kept apart here.

Assays:
HL60/MX2 cells = test: Cytotoxicity in panel of MDR cell lines, HL60/MX2 (72 h and 144 h); assay type: cell-based, human; conditions: for IC50: Homo sapiens
Summary of the method: (§1)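 Four-parameter logistic fitting of 10-point CellTiter-Glo curves gives the IC50, expressed molar. Cells, including resistant H69AR, MES-SA/MX2 and HL60/MX2 plus HCT-15, are plated at 1000/well and exposed to payloads for 72 h and 144 h.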

HCT-15 cells = test: Cytotoxicity in panel of MDR cell lines, HCT-15 (72 h and 144 h); assay type: cell-based, human; conditions: for IC50: Homo sapiens
Summary of the method: as §1

C4-2 cells = test: Cell-based killing assay of payloads (CellTiter-Glo), C4-2 cells; parameters: species or system human; conditions: 5-day incubation; for IC50: Homo sapiens, C4-2, 120 h, average ± SD where replicates; for C4-2 % Kill: at maximum concentration tested (100 − % viable cells)
Summary of the method: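 Viability readout is CellTiter-Glo luminescence after a 5-day exposure to 10-point, threefold-diluted payloads spanning 100 nM–[…], following overnight attachment of 4000 cells/well. Four-parameter logistic fit gives IC50 in M; % kill taken at highest concentration tested.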

MES-SA/MX2 cells = test: Cytotoxicity in panel of MDR cell lines, MES-SA/MX2 (72 h and 144 h); assay type: cell-based, human; conditions: for IC50: Homo sapiens
Summary of the method: as §1

HCT15 cells = test: cells; assay type: cell-based, human; conditions: HCT15 cells; for HCT-15 + verapamil % Kill / HCT-15 % Kill: maximum % cell killing
Summary of the method: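 Five-day exposure of 1000 HCT15 cells/well to threefold payload dilutions, run both plus and minus verapamil (5 ug/mL) in RPMI with 10% FBS. ATP luminescence (CellTiter-Glo) gives viability; four-parameter logistic fit of 10 points yields IC50, and 100 − % viable at highest dose gives % kill.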

H69AR cells = test: Cytotoxicity in panel of MDR cell lines, H69AR (72 h and 144 h); assay type: cell-based, human; conditions: for IC50: Homo sapiens
Summary of the method: as §1

[1] = 72 h incubation, read-out: HL60/MX2 IC50 72 h
[2] = 144 h incubation, read-out: HL60/MX2 IC50 144 h
[3] = 72 h incubation, read-out: HCT-15 IC50 72 h
[4] = 144 h incubation, read-out: HCT-15 IC50 144 h
[5] = 72 h incubation, read-out: MES-SA/MX2 IC50 72 h
[6] = 144 h incubation, read-out: MES-SA/MX2 IC50 144 h
[7] = with 5 ug/mL Verapamil, read-out: HCT-15 + verapamil IC50
[8] = Homo sapiens, HCT-15, without Verapamil, read-out: HCT-15 IC50
[9] = 72 h incubation, read-out: H69AR IC50 72 h
[10] = 144 h incubation, read-out: H69AR IC50 144 h

SMILES	HL60/MX2 % Kill 72 h (HL60/MX2 cells; 72 h incubation)	HL60/MX2 % Kill 144 h (HL60/MX2 cells; 144 h incubation)	IC50 (HL60/MX2 cells; [1])	IC50 (HL60/MX2 cells; [2])	HCT-15 % Kill 72 h (HCT-15 cells; 72 h incubation)	HCT-15 % Kill 144 h (HCT-15 cells; 144 h incubation)	IC50 (HCT-15 cells; [3])	IC50 (HCT-15 cells; [4])	IC50 (C4-2 cells)	C4-2 % Kill (C4-2 cells)	MES-SA/MX2 % Kill 72 h (MES-SA/MX2 cells; 72 h incubation)	MES-SA/MX2 % Kill 144 h (MES-SA/MX2 cells; 144 h incubation)	IC50 (MES-SA/MX2 cells; [5])	IC50 (MES-SA/MX2 cells; [6])	HCT-15 + verapamil % Kill (HCT15 cells; with 5 ug/mL Verapamil)	IC50 (HCT15 cells; [7])	HCT-15 % Kill (HCT15 cells; without Verapamil)	IC50 (HCT15 cells; [8])	H69AR % Kill 72 h (H69AR cells; 72 h incubation)	H69AR % Kill 144 h (H69AR cells; 144 h incubation)	further results
CCCCCCN(C(=O)[C@@H](NC(=O)[C@H]1CCCCN1C)[C@@H](C)CC)[C@H](C[C@@H](OC(C)=O)c1nc(C(=O)N[C@@H](Cc2ccc(N)c(F)c2)CC(C)(C)C(=O)O)cs1)C(C)C [IVvB, 4-({2-[(1R,3R)-1-(Acetyloxy)-3-[(2S,3S)—N-hexyl-3-methyl-2-{[(2R)-1-methylpiperidin-2-yl]formamido}pentanamido]-4-methylpentyl]-1,3-thiazol-4-yl}formamido)-5-(4-amino-3-fluorophenyl)-2,2-dimethylpentanoic acid]	98.2%	99.8%	< 0.015 nM	< 0.015 nM	97.7%	99.6%	< 0.015 nM	0.0228 nM	0.0215 nM	94.6%	99.1%	99.9%	0.0456 nM	0.0658 nM	97.7%	0.015 nM	97.3%	0.025 nM	96.9%	99.1%	IC50 (H69AR cells; [9]): 0.0599 nM; IC50 (H69AR cells; [10]): 0.158 nM
CC[C@H](C)[C@H](NC(=O)[C@H]1CCCCN1C)C(=O)N(CCCCc1cn(-c2ccccc2)nn1)[C@H](C[C@@H](OC(C)=O)c1nc(C(=O)N[C@@H](Cc2ccc(N)cc2)CC(C)(C)C(=O)O)cs1)C(C)C [IVp, (S)-4-(2-((1R,3R)-1-acetoxy-4-methyl-3-((2S,3S)-3-methyl-2-((R)-1-methylpiperidine-2-carboxamido)-N-(4-(1-phenyl-1H-1,2,3-triazol-4-yl)butyl)pentanamido)pentyl)thiazole-4-carboxamido)-5-(4-aminophenyl)-2,2-dimethylpentanoic acid]	97.5%	99.9%	0.0237 nM	< 0.015 nM	97.6%	99.7%	0.181 nM	0.231 nM	0.177 nM	94.2%	98.8%	99.9%	0.792 nM	1.66 nM	97.6%	0.0864 nM	98.7%	0.239 nM	96.3%	99.2%	IC50 (H69AR cells; [9]): 0.644 nM; IC50 (H69AR cells; [10]): 1.12 nM
[2H]c1cc(C[C@@H](CC(C)(C)C(=O)O)NC(=O)c2csc([C@@H](C[C@H](C(C)C)N(CCCCCC)C(=O)[C@@H](NC(=O)[C@H]3CCCCN3C)[C@@H](C)CC)OC(C)=O)n2)cc([2H])c1N [IVs, (S)-4-(2-((1R,3R)-1-Acetoxy-3-((2S,3S)—N-hexyl-3-methyl-2-((R)-1-methylpiperidine-2-carboxamido)pentanamido)-4-methylpentyl)thiazole-4-carboxamido)-5-(4-aminophenyl-3,5-d2)-2,2-dimethylpentanoic acid]	98.4%	100%	< 0.015 nM	< 0.015 nM	97.6%	99.7%	0.0371 nM	0.0501 nM	0.0499 nM	93.8%	99.2%	100%	0.102 nM	0.21 nM	98.8%	0.0459 nM	99.1%	0.108 nM	96.8%	99.4%	IC50 (H69AR cells; [9]): 0.161 nM; IC50 (H69AR cells; [10]): 0.281 nM
